In PMC10447463, “Data-mining unveils structure–property–activity correlation of viral infectivity enhancing self-assembling peptides” (Nature Communications, 2023):
Like-named read-outs stand apart in the source and are kept apart here.

Assays:
[1] = Zeta-potential measurement; type: physicochemical; settings: for Zeta pot. / mV: 1 mg/mL in PBS pH 7.4 from 10 mg/mL DMSO stock, 1 d RT, 60 µL diluted in 600 µL 1 mM KCl, Zetasizer Nano ZS, Smoluchowski, mean of triplicate
In short: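 Surface charge of aggregated peptides: 1 mg/mL solutions in PBS (pH 7.4) incubated 1 d at RT, diluted into 1 mM KCl just before reading. Electrophoretic mobility converted to zeta potential by the Smoluchowski formula; triplicate measurements from two separate experiments averaged.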

[2] = Conversion rate (CR) assay with fluorescamine; type: physicochemical; set-up: key to CR: % = 100−100×filtrate/original fluorescence intensity
Method: For ATR FT–IR spectroscopy measurements, 200 µL of the respective 1 mg/mL PNF solution was lyophilized and the resulting powder used for measurement. All spectra were recorded on a Bruker Tensor 27 spectrometer with a diamond crystal as ATR element (PIKE MiracleTM, spectral resolution 2 cm^-1). Every sample was measured with 64 scans. Data were analyzed with OriginLab software and calculation of β–sheet content was conducted according to a previous report. TEM. For TEM measurements 5 µL of PNF fibrils (1 mg/mL) were placed on copper grids coated with carbon and formvar layer (300 mesh, Plano GmbH). After 10 min incubation time, the grids were staining with 4% uranyl acetate solution for 2.5 min and washed with water. Measurements were performed on a Jeol 1400 electron microscope with 120 kV acceleration voltage. CR Assay. For the determination of the amount of peptide monomer converting into nanostructures the amine reactive dye fluorescamine was used analogous to a previous reported protocol. Briefly, 100 µL of the preformed PNF solution was centrifuged in a Vivaspin 500 tube (3 kDa MWCO) to separate fibers from free peptide monomer (16200 x g, 4 °C, 45 min). The filtrate and 100 μL of the non-filtered PNF sample were lyophilized and dissolved in 30 μL DMSO. 10 μL of the filtrate and non-filtered DMSO samples were submitted in a black UV Star® 384 microliter well–plates (Greiner bio–one) and 3 μL of the fluorescamine solution (10 mg/mL, DMSO) was added to measure the fluorescence enhancement. After 20 min of incubation at RT, fluorescence was recorded on an Infinite® M1000 PRO microplate reader (Tecan) at λem = 470 nm upon excitation at λex = 365 nm with 10 nm bandwidths and multiple reads per well (3×3). Measurements were repeated in triplicates and averaged with standard deviation. All values were calculated as n-fold fluorescence enhancement (DMSO only as a reference was set to 1). The conversion rate CR was defined according to the equation Eq. (3).3 CR=100−100×fluorescenceintensityfiltrate/fluorescenceintensityoriginal[%]

[3] = zeta potential of peptide assemblies
[4] = zeta-potential of peptide, source data of Figure 2C
[5] = zeta-potential of the peptide assemblies, mean, Figure 3A source data
[6] = Fig. S7 panel B, conversion rate, fluorescamine assay
[7] = conversion rate, fluorescamine assay
[8] = conversion of monomer to nanostructures, 3 kDa MWCO filtration, fluorescamine, ex 365 / em 470 nm, triplicate

Row | Substance | Zeta-Pot. [1, 3] | Zeta-Potential / mV [1, 4] [mV] | Zeta-Potential / mV [1, 5] [mV] | CR / % [2, 6] [%] | CR [2, 7] | Zeta-Pot. [1] | Zeta pot. / mV [1] [mV] | CR / % [2, 8] [%]
1 | KFKFKFQF | 15.2 | 16.32 | 15.2 | 94 | 94 | – | – | –
2 | CEIEIQINM | -15.3 | -22.07 | -15.3 | 43 | 43 | – | – | –
3 | KFKFQFFF | 13.27 | 15.57 | 13.27 | 98.5 | 98.46 | – | – | –
4 | KIKIQIC | 19.93 | 19.97 | 19.93 | 51.5 | 51.55 | – | – | –
5 | RGDKIKIQINM | 16.43 | 16.22 | 16.43 | 60.9 | 60.92 | – | – | –
6 | QCKAKAQANM | – | -4.641 | -8.36 | 55.9 | 55.94 | -8.357 | -8.4 | 56
7 | CKAKAQANMWQ | – | 2.155 | 0.74 | 92.5 | 92.45 | 0.7373 | 0.7 | 92
8 | QCKAKAQANMWQ | – | -4.813 | -8.05 | 89.3 | 89.28 | -8.05 | -8.1 | 89
9 | RGDKIKIQINMWQ | 6.59 | 11.21 | 6.59 | 66 | 66 | – | – | –
10 | HHHHKIKIQINMYYYY | 7.807 | 7.147 | 7.81 | 98.4 | 98.42 | – | – | –
11 | QCKFKQFFNM | – | 15.12 | 13.67 | 98.7 | 98.67 | 13.67 | – | –
12 | CSISIQI | -25.93 | -26.07 | -25.93 | 79.3 | 79.31 | – | – | –
13 | RGDSKIKIQIC | 15.1 | 15.65 | 15.1 | 43.4 | 43.38 | – | – | –
14 | HHHHKIKIKIKIWWWW | 14.5 | 14.42 | 14.5 | 96 | 96 | – | – | –
15 | KIKIKIQI | 6.97 | 9.885 | 6.97 | 80 | 80 | – | – | –
16 | RGDKIKIQINMC | 12.2 | 13.9 | 12.2 | 60 | 60 | – | – | –
17 | EIEIQINM | – | -21.58 | -23.33 | 78.4 | 78.43 | -23.33 | – | –
18 | CKIKIQI | 12.8 | 13.2 | 12.8 | 54 | 54 | – | 12.8 | –
19 | RGDCKFKFQF | 13.87 | 16.37 | 13.87 | 85.5 | 85.47 | – | – | –
20 | EIKIQINM | – | -20.62 | -22.33 | 50.7 | 50.72 | -22.33 | – | –
21 | CKIKQII | -3.83 | 5.568 | -3.83 | 55 | 55 | – | -3.83 | –
22 | CEIEIQINMWQ | -25.8 | -26.07 | -25.8 | 67 | 66.95 | – | – | –
